The numbers were not newly measured in patent US7702465B2 (priority 2002, dated 2010), which cites them from elsewhere.

Series [1] concerns the target HLA A*0201 (Homo sapiens, UniProt P04439, /I218V/L300P/L318F/N151K/N90K/P208A/P217A/Q86G/Q94H/R138H/R169H/T345S). The note with it: binding to HLA A*0201; nonameric peptides from HPV E6 and E7; literature data of Rudolf et al. (2001).
Series [2] addresses HLA A*0201 (Homo sapiens, UniProt P04439, D140Y/D185E/D98H/E176V/E277Q/G131W/G231S/I119V/I121R/I166T/I218V/L300P/L318F/N151K/N90K/P208A/P217A/Q86G/Q94H/R138H/R169H/T345S). The note with it: binding peptides = the 15 of 247 with IC50 3 to 943 nM (Rudolf et al. 2001).

With FAFKDLFVV, on HLA A*0201 [1], the IC50 is 3 nM. In the case of LYNLLIRCL, the “classification as binder to HLA A*0201” value at HLA A*0201 [2] was “binding peptides”. For FKDLFVVYR, the IC50 on HLA A*0201 [1] is 500 nM. On to LFLNTLSFV, for which the “classification as binder to HLA A*0201” value with HLA A*0201 [2] is recorded as “binding peptides”.

For orientation: IC50 means the point on the concentration scale where inhibition reaches its midpoint.
